Measurements published in patent US12643858B2 (Inipharm, Inc., priority 2020, dated 2026).

Molecular target: T1, HSD17B13 enzyme (Homo sapiens, UniProt Q7Z5P4)
T1 construct: His; made in house; host or cells: E. coli
T1 sequence (Q7Z5P4 20-300): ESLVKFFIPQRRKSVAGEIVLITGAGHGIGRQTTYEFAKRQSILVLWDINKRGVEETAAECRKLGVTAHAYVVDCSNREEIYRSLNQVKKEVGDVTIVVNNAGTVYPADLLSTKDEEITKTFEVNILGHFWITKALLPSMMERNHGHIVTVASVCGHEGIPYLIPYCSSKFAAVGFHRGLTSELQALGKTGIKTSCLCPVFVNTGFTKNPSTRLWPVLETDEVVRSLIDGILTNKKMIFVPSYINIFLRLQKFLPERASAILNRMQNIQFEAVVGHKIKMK
Experiment: NADH detection assay (fluorescence based LTB3 assay) for HSD17B13 activity
Assay type: biochemical
Settings: substrate 25 μM LTB3, 3 mM NAD+, 125 nM HSD17B13 enzyme, 1 hour at 26.5° C.
Procedure: Example A: NADH Detection Assay for Evaluation of HSD17ß13 Activity and Identification of Inhibitors
The fluorescence based Leukotriene B3 (LTB3) assay monitors the fluorescence of NADH, which is generated from NAD+ during the dehydrogenation of the substrate LTB3. The reactions were performed in a 384-well plates (Greiner; #655076) in a 20 μl reaction volume containing the following reagents (final concentrations): 25 μM LTB3 (Cayman; #20109); 3 mM NAD+ (Sigma; #N0623); 125 nM HSD17B13 enzyme (in-house; E. coli expressed His-tagged, purified, soluble protein); […] potassium phosphate buffer, pH 7.4; and 1% DMSO. Reactions were initiated by co-addition of NAD+ and enzyme, and monitored for 1 hour at 26.5° C. Generation of NADH was measured as the fluorescence signal (Excitation at 340 nm and Emission at 445 nm) at 1 hour minus the baseline fluorescence at t=0. Fluorescence signals in the absence of LTB3 (negative control values), were subtracted from all values so that the results reflected substrate-dependent production of NADH. NADH standards were included to allow the conversion of relative fluorescence units into rates of enzyme activity. Enzyme activity in the presence of test compounds was expressed as a percentage of the uninhibited enzyme activity, and plotted versus inhibitor concentration. Non-linear regression was performed using a four-parameter logistic model and GraphPad Prism software (GraphPad Software, La Jolla, CA). Ten concentrations of inhibitor were tested (in the range of 30 μM-2.5 nM), and two independent assessments were performed at each concentration.

Row | IC50 [µM] | Compound
1 | ≤ 5 | Oc1cc(Oc2cccc(-c3cccnc3)n2)ccc1F [Example 1, 5-([2,3′-bipyridin]-6-yloxy)-2-fluorophenol]
2 | 5 to 10 | Oc1cccc(-c2cccc(Oc3cccnc3)n2)c1F [Example 2, 2-fluoro-3-(6-(pyridin-3-yloxy)pyridin-2-yl) phenol]
3 | 5 to 10 | Oc1cc(Oc2cccc(-c3ccc4cn[nH]c4c3)n2)ccc1F [Example 3, 5-((6-(1H-indazol-6-yl)pyridin-2-yl)oxy)-2-fluorophenol]
4 | ≤ 5 | Oc1cccc(-c2cccc(Oc3ccc4cn[nH]c4c3)n2)c1F [Example 4, 6-((6-(2-fluoro-3-methoxyphenyl)pyridin-2-yl)oxy)-1H-indazole and 3-(6-((1H-indazol-6-yl)oxy)pyridin-2-yl)-2 fluorophenol]
5 | > 30 | O=c1ccc(Oc2cccc(-c3cccc(O)c3F)n2)cn1C(F)F [Example 5, 1-(difluoromethyl)-5-((6-(2-fluoro-3-hydroxyphenyl)pyridin-2-yl)oxy)pyridin-2(1H)-one]
6 | > 30 | COc1cccc(-c2cccc(Oc3ccc4c(c3)NC(=O)C4)n2)c1F [Example 6, 6-{[6-(2-fluoro-3-methoxyphenyl)pyridin-2-yl]oxy}-2,3-dihydro-1H-indol-2-one]
7 | > 30 | O=C1Cc2ccc(Oc3cccc(-c4cccc(O)c4F)n3)cc2N1 [Example 7]
8 | 5 to 10 | Oc1cc(Oc2cccc(-c3cccs3)n2)ccc1F [Example 8, 2-fluoro-5-((6-(thiophen-2-yl)pyridin-2-yl)oxy) phenol]
9 | 10 to 30 | Oc1cc(Oc2cccc(-c3cc4ccccc4s3)n2)ccc1F [Example 9, 5-((6-(benzo[b]thiophen-2-yl)pyridin-2-yl)oxy)-2-fluorophenol]
10 | > 30 | COc1cc(Oc2nccc(-c3cccc(O)c3F)n2)ccc1F [Example 10, 2-fluoro-3-[2-(4-fluoro-3-methoxyphenoxy)pyrimidin-4-yl]phenol]
11 | 10 to 30 | Oc1cc(Oc2nccc(-c3cccc(O)c3F)n2)ccc1F [Example 11, 2-fluoro-3-[2-(4-fluoro-3-hydroxyphenoxy)pyrimidin-4-yl]phenol]
12 | ≤ 5 | Oc1cc(Oc2cccc(-c3ccc(OCc4ccccc4)cc3)n2)ccc1F [Example 12, 5-((6-(4-(benzyloxy)phenyl)pyridin-2-yl)oxy)-2-fluorophenol]
13 | 5 to 10 | Oc1cccc(-c2cccc(Oc3ccc(F)c(C(F)F)c3)n2)c1F [Example 13, 3-{6-[3-(difluoromethyl)-4-fluorophenoxy]pyridin-2-yl}-2-fluorophenol]
14 | > 30 | Oc1cccc(-c2cccc(Oc3ccc(F)c(OC(F)F)c3)n2)c1F [Example 14, 3-{6-[3-(difluoromethoxy)-4-fluorophenoxy]pyridin-2-yl}-2-fluorophenol]
15 | ≤ 5 | Oc1cc(Sc2cccc(-c3cccc(O)c3F)n2)ccc1F [Example 15, 2-fluoro-3-(6-((4-fluoro-3-hydroxyphenyl)thio)pyridin-2-yl) phenol]
16 | > 30 | COc1cc(Oc2ccnc(-c3cccc(O)c3F)n2)ccc1F [Example 16, 2-fluoro-3-[4-(4-fluoro-3-methoxyphenoxy)pyrimidin-2-yl]phenol]
17 | ≤ 5 | Oc1cc(Oc2ccnc(-c3cccc(O)c3F)n2)ccc1F [Example 17, 2-fluoro-3-[4-(4-fluoro-3-hydroxyphenoxy)pyrimidin-2-yl]phenol]
18 | ≤ 5 | O=S(=O)(Nc1cccc(-c2cccc(Oc3ccc(F)c(O)c3)n2)c1)c1ccccc1 [Example 18, N-(3-(6-(4-fluoro-3-hydroxyphenoxy)pyridin-2-yl)phenyl) benzenesulfonamide]
19 | 5 to 10 | CN(C)S(=O)(=O)c1cccc(-c2cccc(Oc3ccc(F)c(O)c3)n2)c1 [Example 20, 3-(6-(4-fluoro-3-hydroxyphenoxy)pyridin-2-yl)-N,N-dimethylbenzenesulfonamide]
20 | 5 to 10 | CNc1nc2cc(-c3cccc(Oc4ccc(F)c(O)c4)n3)ccc2s1 [Example 21]
21 | ≤ 5 | N#Cc1c(Oc2ccc(F)c(O)c2)cccc1-c1cccc(O)c1F [Example 22, 2′-fluoro-3-(4-fluoro-3-hydroxyphenoxy)-3′-hydroxy-[1,1′-biphenyl]-2-carbonitrile]

Row | IC50 [µM] | Compound
22 | > 30 | CN(c1ccc(F)c(O)c1)c1cccc(-c2cccc(O)c2F)c1C#N [Example 23]
23 | ≤ 5 | NC(=O)c1ccc(-c2cccc(O)c2F)nc1Oc1ccc(F)c(O)c1 [Example 25, 2-(4-fluoro-3-hydroxyphenoxy)-6-(2-fluoro-3-hydroxyphenyl)pyridine-3-carboxamide]
24 | ≤ 5 | CC(=O)Nc1nc2cc(-c3cccc(Oc4ccc(F)c(O)c4)n3)ccc2[nH]1 [Example 26, N-(5-(6-(4-fluoro-3-hydroxyphenoxy)pyridin-2-yl)-1H-benzo [d]imidazol-2-yl)acetamide]
25 | ≤ 5 | N#Cc1cc(Oc2ccc(F)c(O)c2)nc(-c2cccc(O)c2F)c1 [Example 27, 2-(4-fluoro-3-hydroxyphenoxy)-6-(2-fluoro-3-hydroxyphenyl) pyridine-4-carbonitrile]
26 | ≤ 5 | Oc1cc(Oc2cccc(-c3ccc(O)c(OCc4ccccc4)c3)n2)ccc1F [Example 28, 2-(benzyloxy)-4-[6-(4-fluoro-3-hydroxyphenoxy)pyridin-2-yl] phenol]
27 | > 30 | NS(=O)(=O)Nc1cc(Oc2cccc(-c3cccc(O)c3F)n2)ccc1F [Example 30, N-(2-fluoro-5-{[6-(2-fluoro-3-hydroxyphenyl)pyridin-2-yl]oxy}phenyl)aminosulfonamide]
28 | ≤ 5 | O=S1(=O)CCN(c2ccc(-c3cccc(Oc4ccc(F)c(O)c4)n3)cc2)CC1 [Example 31, 4-(4-(6-(4-fluoro-3-hydroxyphenoxy)pyridin-2-yl)phenyl)thiomorpholine 1,1-dioxide]
29 | 5 to 10 | Nc1nc2cc(-c3cccc(Oc4ccc(F)c(O)c4)n3)ccc2o1 [Example 32, 5-{[6-(2-amino-1,3-benzoxazol-5-yl)pyridin-2-yl]oxy}-2-fluorophenol]
30 | ≤ 5 | CN1CCOc2cc(-c3cccc(Oc4ccc(F)c(O)c4)n3)ccc21 [Example 33, 2-fluoro-5-((6-(4-methyl-3,4-dihydro-2H-benzo[b][1,4]oxazin-7-yl)pyridin-2-yl)oxy)phenol]
31 | > 30 | Oc1cc(Oc2cccc(-c3ccc(OCc4ccccc4)c(F)c3)n2)ccc1F [Example 34, 5-({6-[4-(benzyloxy)-3-fluorophenyl]pyridin-2-yl}oxy)-2-fluorophenol]
32 | > 30 | COc1ccc(Oc2cccc(-c3cccc(O)c3F)n2)cc1C(=O)O [Example 35, 5-((6-(2-fluoro-3-hydroxyphenyl)pyridin-2-yl)oxy)-2-methoxybenzoic acid]
33 | ≤ 5 | Oc1cccc(Oc2cccc(-c3cccc(O)c3F)n2)c1F [Example 36, 2-fluoro-3-(6-(2-fluoro-3-hydroxyphenoxy)pyridin-2-yl)phenol]
34 | ≤ 5 | Oc1ccc(Oc2cccc(-c3cccc(O)c3F)n2)cc1F [Example 37, 2-fluoro-3-[6-(3-fluoro-4-hydroxyphenoxy)pyridin-2-yl] phenol]
35 | > 30 | Oc1cc(Oc2cccc(-c3cccc(F)c3O)n2)ccc1F [Example 38, 2-fluoro-5-((6-(3-fluoro-2-hydroxyphenyl)pyridin-2-yl)oxy)phenol]
36 | ≤ 5 | Oc1cc(Oc2cccc(-c3ccc(O)c(F)c3)n2)ccc1F [Example 39, 2-fluoro-4-(6-(4-fluoro-3-hydroxyphenoxy)pyridin-2-yl)phenol]
37 | ≤ 5 | Oc1cc(Oc2cccc(-c3ccc(F)c(O)c3)n2)ccc1F [Example 40, 2-fluoro-5-(6-(4-fluoro-3-hydroxyphenoxy)pyridin-2-yl)phenol]
38 | 5 to 10 | O=c1[nH]c2ccc(Oc3cccc(-c4cccc(O)c4F)n3)cc2[nH]1 [Example 41, 5-((6-(2-fluoro-3-hydroxyphenyl)pyridin-2-yl)oxy)-1,3-dihydro-2H-benzo[d]imidazol-2-one]
39 | > 30 | CC(=O)N1CCN(S(=O)(=O)c2cccc(-c3cccc(Oc4ccc(F)c(O)c4)n3)c2)CC1 [Example 42, 1-(4-{3-[6-(4-fluoro-3-hydroxyphenoxy)pyridin-2-yl]benzenesulfonyl}piperazin-1-yl)ethan-1-one]
40 | 5 to 10 | CN1CCN(S(=O)(=O)c2cccc(-c3cccc(Oc4ccc(F)c(O)c4)n3)c2)CC1 [Example 43, 2-fluoro-5-((6-(3-((4-methylpiperazin-1-yl)sulfonyl)phenyl)pyridin-2-yl)oxy)phenol]
41 | ≤ 5 | O=S(=O)(c1cccc(-c2cccc(Oc3ccc(F)c(O)c3)n2)c1)N1CCOCC1 [Example 44, 2-fluoro-5-((6-(3-(morpholinosulfonyl)phenyl)pyridin-2-yl)oxy)phenol]
